Usually IC50 stands for the concentration that inhibits the measured activity by half. A word on the Kd: it is the equilibrium constant for the complex coming apart.

This note sets out measurements from patent US20250188110A1, “SPECIFIC SMALL MOLECULE INHIBITORS THAT BLOCK KMT9 METHYLTRANSFERASE ACTIVITY AND FUNCTION” (ALBERT-LUDWIGS-UNIVERSITÄT FREIBURG, priority 2021, published 2025).

The target in experiment [1] is T1, KMT9 (Homo sapiens, UniProt Q9Y5N5).
T1 sequence (Q9Y5N5 1-214): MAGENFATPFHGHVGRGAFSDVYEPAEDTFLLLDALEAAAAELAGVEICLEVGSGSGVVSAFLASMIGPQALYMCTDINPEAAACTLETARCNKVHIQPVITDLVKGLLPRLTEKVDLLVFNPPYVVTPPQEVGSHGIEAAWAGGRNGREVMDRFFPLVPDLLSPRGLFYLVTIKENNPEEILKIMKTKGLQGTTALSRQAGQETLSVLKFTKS
T1 sequence (Q9UI30 1-120 isoform Q9UI30-2 partner): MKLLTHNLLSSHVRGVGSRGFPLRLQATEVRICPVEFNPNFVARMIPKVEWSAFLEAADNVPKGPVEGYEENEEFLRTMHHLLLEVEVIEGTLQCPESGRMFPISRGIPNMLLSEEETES
Nature of the experiment: KMT9 methyltransferase inhibition assay, MTaseGlo luminescence (from entry 155). In kind it is biochemical. As to conditions: MTaseGlo procedure (entries from 155); 100 nM KMT9, 5 μM ETF1, 1 μM SAM; read-out: Inhibition (IC50). Put shortly:
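KMT9 (100 nM final) pre-incubated with inhibitor for 15 min at room temperature, then reacted with 5 μM ETF1 and 1 μM SAM for 2 h at 30° C. at 2% DMSO final. MTaseGlo luminescence read after 60 min detection; IC50 reported in four potency bins.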

In experiment [2] the target is T1, KMT9. Nature of the experiment: KMT9 thermal shift assay (SyproOrange). Format: binding. As to conditions: 500 µM compound, 2 μM KMT9; read-out: Thermal shift (ΔTm). The essentials:
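ΔTm versus DMSO-only control is reported in bins (>20 K, 15–20 K, 10–15 K, ≤10 K), using Tm from Boltzmann sigmoidal fits of SyproOrange melt curves. KMT9 with compound in pH 8.5 BTP buffer containing MgCl2 and DTT was preincubated at 25° C, then ramped 1° C per 15 s up to 95° C.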

In experiment [3] the target is T1, KMT9. The experiment can be described thus: Microscale thermophoresis (MST) KMT9 binding. Conditions: His-tag labelled KMT9 20 nM; read-out: MST (Kd). Put shortly:
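Kd from microscale thermophoresis: compound series against 20 nM His-KMT9 labelled via RED-Tris-NTA, buffer 25 mM HEPES (pH 7.5)/100 mM NaCl/1 mM DTT/0.05% Tween, 40% MST power, 100% LED. Reported as classes: A ≤10 nM, B >10–100 nM, C >100–1000 nM, D >1000 nM.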
(In general: Microscale thermophoresis detects binding through changes in fluorescence in a small temperature gradient.)

On to `NCc1cccc([C@H]2C[C@@H](n3ccc4c(N)ncnc43)[C@H](O)[C@@H]2O)c1` [Compound 659, (1R,2S,3R,5R)-3-(4-Amino-7H-pyrrolo[2,3-d]pyrimidin-7-yl)-5-(3-(aminomethyl)phenyl)cyclopentane-1,2-diol], for which, on KMT9 [1], the IC50 was 1000 to 10000 nM. In addition, on KMT9 [2], the ΔTm at 500 µM is ≤ 10 °C. Moreover, the Kd at KMT9 [3] is 100 to 1000 nM.

Regarding `NCc1cccc([C@H]2C[C@@H](n3ccc4c(N)nc(Cl)nc43)[C@H](O)[C@@H]2O)c1` [Compound 660, (1R,2S,3R,5R)-3-{4-Amino-2-chloropyrrolo[2,3-d]pyrimidin-7-yl}-5-[3-(aminomethyl)phenyl]cyclopentane-1,2-diol], the IC50 on KMT9 [1] is < 100 nM. Further, the ΔTm at 500 µM at KMT9 [2] lay within 15 to 20 °C. The Kd on KMT9 [3] is ≤ 10 nM.

On to `Cn1cc([C@H]2C[C@@H](n3ccc4c(N)nc(Cl)nc43)[C@H](O)[C@@H]2O)cn1` [Compound 661, (1R,2S,3R,5R)-3-(4-Amino-2-chloro-7H-pyrrolo[2,3-d]pyrimidin-7-yl)-5-(1-methyl-1H-pyrazol-4-yl)cyclopentane-1,2-diol], for which, on KMT9 [1], the IC50 is 1000 to 10000 nM. The ΔTm at 500 µM at KMT9 [2] was ≤ 10 °C. Also, the Kd at KMT9 [3] fell in the range of 100 to 1000 nM.

As to `Nc1nc(Cl)nc2c1ccn2[C@@H]1C[C@H](c2cc[nH]c(=O)c2)[C@@H](O)[C@H]1O` [Compound 662, 4-[(1R,2R,3S,4R)-4-{4-Amino-2-chloropyrrolo[2,3-d]pyrimidin-7-yl}-2,3-dihydroxycyclopentyl]-1H-pyridin-2-one], the IC50 at KMT9 [1] was 1000 to 10000 nM. Also, the ΔTm at 500 µM at KMT9 [2] is ≤ 10 °C. Besides, at KMT9 [3], the Kd fell in the range of 100 to 1000 nM.

In the case of `COc1cc([C@H]2C[C@@H](n3ccc4c(N)nc(Cl)nc43)[C@H](O)[C@@H]2O)ccn1` [Compound 663, (1R,2S,3R,5R)-3-{4-Amino-2-chloropyrrolo[2,3-d]pyrimidin-7-yl}-5-(2-methoxypyridin-4-yl)cyclopentane-1,2-diol], the IC50 at KMT9 [1] lay in the range of 100 to 1000 nM. Moreover, the ΔTm at 500 µM on KMT9 [2] is ≤ 10 °C. The Kd at KMT9 [3] is 10 to 100 nM.

For the compound `COc1cc(OC)cc([C@H]2C[C@@H](n3ccc4c(N)nc(Cl)nc43)[C@H](O)[C@@H]2O)c1` [Compound 664, (1R,2S,3R,5R)-3-{4-Amino-2-chloropyrrolo[2,3-d]pyrimidin-7-yl]-5-(3,5-dimethoxyphenyl)cyclopentane-1,2-diol], the IC50 on KMT9 [1] is 100 to 1000 nM. On KMT9 [2], the ΔTm at 500 µM is 10 to 15 °C. For the same compound, the Kd at KMT9 [3] was in the range of 10 to 100 nM.

For the compound `COc1cc(CN)cc([C@H]2C[C@@H](n3ccc4c(N)nc(Cl)nc43)[C@H](O)[C@@H]2O)c1` [Compound 665, (1R,2S,3R,5R)-3-(4-amino-2-chloro-7H-pyrrolo[2,3-d]pyrimidin-7-yl)-5-(3-(aminomethyl)-5-methoxyphenyl)cyclopentane-1,2-diol], the IC50 at KMT9 [1] was 100 to 1000 nM. In addition, at KMT9 [2], the ΔTm at 500 µM is 15 to 20 °C. Moreover, the Kd at KMT9 [3] is ≤ 10 nM.

As for `COc1cc(Br)cc([C@H]2C[C@@H](n3ccc4c(N)nc(Cl)nc43)[C@H](O)[C@@H]2O)c1` [Compound 666, (1R,2S,3R,5R)-3-(4-amino-2-chloro-7H-pyrrolo[2,3-d]pyrimidin-7-yl)-5-(3-bromo-5-methoxyphenyl)cyclopentane-1,2-diol], the IC50 at KMT9 [1] is 100 to 1000 nM. At KMT9 [2], the ΔTm at 500 µM is 10 to 15 °C. For the same compound, the Kd at KMT9 [3] is 10 to 100 nM.

In the case of `COc1cc(-c2cnsc2)cc([C@H]2C[C@@H](n3ccc4c(N)nc(Cl)nc43)[C@H](O)[C@@H]2O)c1` [Compound 667, (1R,2S,3R,5R)-3-(4-amino-2-chloro-7H-pyrrolo[2,3-d]pyrimidin-7-yl)-5-(3-(isothiazol-4-yl)-5-methoxyphenyl)cyclopentane-1,2-diol], the IC50 on KMT9 [1] was 1000 to 10000 nM. The ΔTm at 500 µM on KMT9 [2] lay in the range of 10 to 15 °C. Besides, the Kd on KMT9 [3] was 10 to 100 nM.

Take `Nc1nc(Cl)nc2c1ccn2[C@@H]1C[C@H](c2cccc(OC(F)(F)F)c2)[C@@H](O)[C@H]1O` [Compound 668, (1R,2S,3R,5R)-3-(4-amino-2-chloro-7H-pyrrolo[2,3-d]pyrimidin-7-yl)-5-(3-(trifluoromethoxy)phenyl)cyclopentane-1,2-diol]: the IC50 on KMT9 [1] lay within 1000 to 10000 nM. At KMT9 [2], the ΔTm at 500 µM was ≤ 10 °C. Besides, on KMT9 [3], the Kd was 100 to 1000 nM.

For `COc1cccc([C@H]2C[C@@H](n3cc(Br)c4c(N)nc(Cl)nc43)[C@H](O)[C@@H]2O)c1` [Compound 669, (1R,2S,3R,5R)-3-(4-amino-5-bromo-2-chloro-7H-pyrrolo[2,3-d]pyrimidin-7-yl)-5-(3-methoxyphenyl)cyclopentane-1,2-diol], on KMT9 [1], the IC50 fell in the range of 1000 to 10000 nM. The ΔTm at 500 µM on KMT9 [2] lay in the range of 10 to 15 °C. Besides, the Kd at KMT9 [3] is 10 to 100 nM.

For the compound `COc1cccc([C@H]2C[C@@H](n3ccc4c(N)nc(Cl)nc43)[C@H](O)[C@@H]2O)c1` [Compound 670, (1R,2S,3R,5R)-3-{4-amino-2-chloropyrrolo[2,3-d]pyrimidin-7-yl}-5-(3-methoxyphenyl)cyclopentane-1,2-diol], on KMT9 [1], the IC50 lay within 100 to 1000 nM. The ΔTm at 500 µM on KMT9 [2] was in the range of 10 to 15 °C. Also, the Kd on KMT9 [3] is ≤ 10 nM.

On to `COc1cccc([C@H]2C[C@@H](n3cc(-c4ccn(C)n4)c4c(N)nc(Cl)nc43)[C@H](O)[C@@H]2O)c1` [Compound 671, (1R,2S,3R,5R)-3-(4-amino-2-chloro-5-(1-methyl-1H-pyrazol-3-yl)-7H-pyrrolo[2,3-d]pyrimidin-7-yl)-5-(3-methoxyphenyl)cyclopentane-1,2-diol], for which the IC50 at KMT9 [1] fell in the range of 1000 to 10000 nM. Moreover, the ΔTm at 500 µM on KMT9 [2] lay within 10 to 15 °C. The Kd on KMT9 [3] is 10 to 100 nM.

Consider `Nc1nc(Cl)nc2c1ccn2[C@@H]1C[C@H](c2cccc(CN3CCC3)c2)[C@@H](O)[C@H]1O` [Compound 672, (1R,2S,3R,5R)-3-(4-amino-2-chloro-7H-pyrrolo[2,3-d]pyrimidin-7-yl)-5-(3-(azetidin-1-ylmethyl)phenyl)cyclopentane-1,2-diol], for which the IC50 on KMT9 [1] was in the range of 100 to 1000 nM. In addition, the ΔTm at 500 µM on KMT9 [2] was 10 to 15 °C. Also, the Kd at KMT9 [3] was 10 to 100 nM.

`Nc1nc(Cl)nc2c1c(Br)cn2[C@@H]1C[C@H](c2cccc(CN3CCC3)c2)[C@@H](O)[C@H]1O` [Compound 673, (1R,2S,3R,5R)-3-(4-amino-5-bromo-2-chloro-7H-pyrrolo[2,3-d]pyrimidin-7-yl)-5-(3-(azetidin-1-ylmethyl)phenyl)cyclopentane-1,2-diol]: the IC50 on KMT9 [1] is 100 to 1000 nM. Besides, the ΔTm at 500 µM on KMT9 [2] fell in the range of 15 to 20 °C. Also, the Kd on KMT9 [3] was ≤ 10 nM.

As to `Cn1ccc(-c2cn([C@@H]3C[C@H](c4cccc(CN5CCC5)c4)[C@@H](O)[C@H]3O)c3nc(Cl)nc(N)c23)n1` [Compound 674, (1R,2S,3R,5R)-3-(4-amino-2-chloro-5-(1-methyl-1H-pyrazol-3-yl)-7H-pyrrolo[2,3-d]pyrimidin-7-yl)-5-(3-(azetidin-1-ylmethyl)phenyl)cyclopentane-1,2-diol], the IC50 at KMT9 [1] lay in the range of 100 to 1000 nM. At KMT9 [2], the ΔTm at 500 µM lay within 15 to 20 °C. Besides, the Kd at KMT9 [3] was ≤ 10 nM.

As for `Cn1cc(Cl)c(-c2cn([C@@H]3C[C@H](c4cccc(CN5CCC5)c4)[C@@H](O)[C@H]3O)c3nc(Cl)nc(N)c23)n1` [Compound 675, (1R,2S,3R,5R)-3-(4-amino-2-chloro-5-(4-chloro-1-methyl-1H-pyrazol-3-yl)-7H-pyrrolo[2,3-d]pyrimidin-7-yl)-5-(3-(azetidin-1-ylmethyl)phenyl)cyclopentane-1,2-diol], the IC50 at KMT9 [1] fell in the range of 100 to 1000 nM. For the same compound, the ΔTm at 500 µM at KMT9 [2] was 15 to 20 °C. In addition, the Kd on KMT9 [3] was ≤ 10 nM.
